Laboratory results published in patent publication US10792277B2, “Methods of treatment of fibrosis and cancers” (GENFIT, priority 2013, dated 2020).

Key:
Assay in all cases: Gene expression (quantitative RT-PCR) in TGFβ1-activated hHSC
Assay type in all cases: cell-based, human
[1] = tested on: HGFR gene expression in hHSC; conditions: 10 μM; TGFβ1 1 ng/mL, 24 hours, serum free
Method: (§1) The human primary hepatic stellate cells (hHSC) (ScienCell) were cultured under standard conditions, as described above. For experiments to determine gene expression patterns, hHSC were plated at a density of 1.4×10^5 cells/well into 12-well plates and were cultured overnight. Next day, culture medium was removed, cells were washed with PBS (Invitrogen cat #14190) and serum-free and SteCGS-free medium was added for an additional 16 hours. Cells were treated with compounds in addition to TGFβ1 (1 ng/mL) in a serum-free and SteCGS-free medium for 24 hours.
(§2) Total RNA was isolated using RNeasy® Mini Kit (Qiagen) following manufacturer's instructions. 250 ng of total RNA were reverse transcribed in cDNA using M-MLV RT (Moloney Murine Leukemia Virus Reverse Transcriptase) (Invitrogen cat #28025) in presence of RT buffer 1× (Invitrogen), 1 mM DTT (Invitrogen), 0.18 mM dNTPs (Promega), 200 ng pdN6 (Amersham) and 30 U of RNase inhibitor (Promega).
(§3) Quantitative PCR was then carried out using the MyiQ Single-Color Real-Time PCR Detection or the iCycler iQ Multiplex Real-Time PCR Detection System (both systems from Biorad). Briefly, PCR reactions were performed in 96 Well plates on 5 μL of 5× diluted reverse transcription mix using the iQ SYBR Green Supermix kit. The experimental conditions were: 25 μL of volume reaction, 3 mM of MgCl2, and 0.5 μL each of reverse and forward primers (10 pMol).
(§4) Expression levels were normalized using the expression of 36B4 gene as reference.
(§5) For each gene, the standard curves were drawn by selecting the best points (at least three points) in order to have PCR reaction efficiency close to 100% and a correlation coefficient close to 1. Expression levels were determined using the standard curve equation for both the housekeeping gene and the target gene (taking into account the specific PCR efficiency of each target gene).
(§6) The induction factor vs TGFβ1 was determined as follow: […]
(§7) Thus, lower the induction factor is more the compound of interest inhibits the TGFβ1 activation of hHSC. Experimental results were expressed as mean±standard deviation (SD) of the induction factor.
(§8) The expression of both profibrotic and cancer associated genes was induced in the primary human hepatic stellate cells (hHSCs) by the treatment with the TGFβ1 (1 ng/mL) in serum free conditions. […] The expression of the genes of interest in both treated and untreated hHSCs was determined by the quantitative RT-PCR technique, following 24 hours of exposure to the TGFβ1.
(§9) Experimental results were expressed as Emax values that indicate the maximum inhibition, which was obtained at the concentration of 10 μmole/L. Statistical analyses were performed using an one-way ANOVA followed by Bonferroni post-hoc tests, using Sigma Plot 11.0 software.

[2] = tested on: αSMA gene expression in hHSC; conditions: 10 μM; TGFβ1 1 ng/mL, 24 hours, serum free
Method: as §1, §2, §3, §4, §5, §6, §7, §8, §9

[3] = tested on: VEGFR1 gene expression in hHSC; conditions: 10 μM; TGFβ1 1 ng/mL, 24 hours, serum free
Method: as §1, §2, §3, §4, §5, §6, §7, §8, §9

[4] = tested on: Col4α1 gene expression in hHSC; conditions: 10 μM; TGFβ1 1 ng/mL, 24 hours, serum free
Method: as §1, §2, §3, §4, §5, §6, §7, §8, §9

[5] = tested on: Col1α1 gene expression in hHSC; conditions: 3 μM; TGFβ1 1 ng/mL, 24 hours, serum free
Method: as §1
Total RNA was isolated using RNeasy® Mini Kit (Qiagen) following manufacturer's instructions. […]
Quantitative PCR was then carried out using the MyiQ Single-Color Real-Time PCR Detection or the iCycler iQ Multiplex Real-Time PCR Detection System (both systems from Biorad). […]
as §5, §6

[6] = tested on: FGFR1 gene expression in hHSC; conditions: 3 μM; TGFβ1 1 ng/mL, 24 hours, serum free
Method: as §1, with “Next day, culture medium was removed, cells were washed with PBS (Invitrogen cat #14190) and serum-free and SteCGS-free medium was added for an additional 16 hours.” left out
(§10) Total RNA was isolated using RNeasy® Mini Kit (Qiagen) following manufacturer's instructions.
as §3, §4
(§11) Expression levels were determined using the standard curve equation for both the housekeeping gene and the target gene (taking into account the specific PCR efficiency of each target gene).
as §6

[7] = tested on: TGFβR1 gene expression in hHSC; conditions: 10 μM; TGFβ1 1 ng/mL, 24 hours, serum free
Method: as §1, with “Next day, culture medium was removed, cells were washed with PBS (Invitrogen cat #14190) and serum-free and SteCGS-free medium was added for an additional 16 hours.” left out
as §10, §3, §4, §11, §6

`CNC(=O)c1cc(Oc2ccc(NC(=O)Nc3ccc(Cl)c(C(F)(F)F)c3)cc2)ccn1` [Sorafenib] was tested, and the “Emax, reduction in HGFR gene expression vs hHSC treated with TGFβ1 alone” value [1] was −79%, the “Emax, reduction in αSMA gene expression vs hHSC treated with TGFβ1 alone” value [2] was −95% and the “Emax, reduction in VEGFR1 gene expression vs hHSC treated with TGFβ1 alone” value [3] was −95%. For the same compound, the “Emax, reduction in Col4α1 gene expression vs hHSC treated with TGFβ1 alone” value [4] was −93%, the “Emax, reduction in Col1α1 gene expression vs hHSC treated with TGFβ1 alone” value [5] was −93% and the “Emax, reduction in FGFR1 gene expression vs hHSC treated with TGFβ1 alone” value [6] was −43%. For the same compound, the “Emax, reduction in TGFβR1 gene expression vs hHSC treated with TGFβ1 alone” value [7] was −80%.
